In patent US6632794B1, “Insulin-like growth factor agonist molecules” (Genentech, Inc., priority 1997, dated 2003):

Columns and labels:
hypophysectomized rats = test: Long-term administration to hypophysectomized rats; type: in vivo, rat; settings: one week
Description: Young female SD rats were hypophysectomized at Taconic Laboratories and delivered several days later. The rats were then weighed frequently and those whose weight increased or decreased by more than 7 grams between 2 and 3 weeks following hypophysectomy were excluded from the study. Twenty-five rats were grouped randomly into five groups based on their body weight, and then randomly assigned to cages, with four rats per cage. The animals were allowed ad libitum access to food and water and housed in a room controlled for temperature and lighting.
1) Excipient pump, excipient injections;
2) (Leu^24,Ala^31)hIGF-I (10 μg/day, by SC minipump), excipient injections;
3) (Leu^24,Ala^31)hIGF-I (50 μg/day, by SC minipump), excipient injections;
4) Recombinant human GH (NUTROPIN™ brand from Genentech, Inc., 20 μg/day, by SC injection, two injections each of 10 μg/day), excipient minipump; or
5) (Leu^24,Ala^31)hIGF-I (50 μg/day, by SC minipump) plus recombinant human GH (20 μg/day, by SC injection, two injections each of 10 μg/day).
The rats were dosed for one week.
The mutant (Leu^24,Ala^31)hIGF-I was administered by osmotic minipumps (ALZET 2001™, Alza, Palo Alto, Calif.), which were placed in a subcutaneous tunnel in the dorsal neck region of the rats while they were anesthetized with KETAMINE™/XYLAZINE™ anesthesia. The pumps were filled with solutions so that the calculated daily dose was 50 μg or 10 μg, assuming that 24 μl of solution was delivered each day for one week.
Recombinant human GH was administered for one week by twice daily SC injections of 10 μg in 100 μl volume.
Body weights were measured daily in the morning. At the end of the week of dosing the animals were anesthetized via CO2 and exsanguinated via cardiac puncture. The remaining blood was allowed to clot and serum was separated and stored for further analysis.
Spleen, thymus, heart, liver, kidney, and perirenal fat were removed and weighed. The tibia was removed and fixed in neutral buffered formalin for histological measurement of epiphyseal plate width.
Serum chemistries were measured on an automated Chem I analyzer. Serum insulin concentration was measured using an RIA Kit supplied by Linco, Inc. To measure the IGF-I concentrations the serum was extracted using acid ethanol and the supernatant diluted to neutrality and assayed for IGF-I by RIA.
Tibia were sectioned longitudinally, stained with Toluene Blue, and mounted on microscope slides. The tibial epiphyseal plate width was measured using an ocular micrometer attached to a microscope.
Data were analyzed statistically by analysis of variance using one factor and two factor ANOVA.

[1] = molecular target: T1, human Type 1 IGF receptor (Homo sapiens, UniProt P08069); test: KIRA for phosphorylation of the human Type 1 receptor in MCF-7 cells; type: cell-based; settings: substance alone
T1 construct: host or cells: MCF-7
T1 sequence (P08069 31-736 limits assumed): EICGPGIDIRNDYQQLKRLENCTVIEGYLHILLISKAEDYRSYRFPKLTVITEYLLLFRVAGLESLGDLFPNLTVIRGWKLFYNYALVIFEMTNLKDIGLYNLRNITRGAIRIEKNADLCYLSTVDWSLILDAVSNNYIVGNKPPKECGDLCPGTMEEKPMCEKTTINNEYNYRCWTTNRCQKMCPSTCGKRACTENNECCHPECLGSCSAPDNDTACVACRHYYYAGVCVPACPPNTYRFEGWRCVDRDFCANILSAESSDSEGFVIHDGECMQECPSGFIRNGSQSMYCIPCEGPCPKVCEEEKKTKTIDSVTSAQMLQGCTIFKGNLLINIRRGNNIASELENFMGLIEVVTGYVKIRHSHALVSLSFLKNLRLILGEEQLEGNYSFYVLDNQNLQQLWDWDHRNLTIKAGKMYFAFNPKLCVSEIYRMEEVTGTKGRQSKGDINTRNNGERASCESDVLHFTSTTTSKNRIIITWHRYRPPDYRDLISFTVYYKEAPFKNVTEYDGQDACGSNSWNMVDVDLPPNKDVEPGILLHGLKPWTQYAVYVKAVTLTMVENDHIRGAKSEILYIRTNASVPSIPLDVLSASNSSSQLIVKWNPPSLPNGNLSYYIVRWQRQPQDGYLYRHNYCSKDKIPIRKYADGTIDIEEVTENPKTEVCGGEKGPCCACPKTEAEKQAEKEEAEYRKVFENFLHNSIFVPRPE
T1 sequence (P08069 741-1367 partner limits assumed): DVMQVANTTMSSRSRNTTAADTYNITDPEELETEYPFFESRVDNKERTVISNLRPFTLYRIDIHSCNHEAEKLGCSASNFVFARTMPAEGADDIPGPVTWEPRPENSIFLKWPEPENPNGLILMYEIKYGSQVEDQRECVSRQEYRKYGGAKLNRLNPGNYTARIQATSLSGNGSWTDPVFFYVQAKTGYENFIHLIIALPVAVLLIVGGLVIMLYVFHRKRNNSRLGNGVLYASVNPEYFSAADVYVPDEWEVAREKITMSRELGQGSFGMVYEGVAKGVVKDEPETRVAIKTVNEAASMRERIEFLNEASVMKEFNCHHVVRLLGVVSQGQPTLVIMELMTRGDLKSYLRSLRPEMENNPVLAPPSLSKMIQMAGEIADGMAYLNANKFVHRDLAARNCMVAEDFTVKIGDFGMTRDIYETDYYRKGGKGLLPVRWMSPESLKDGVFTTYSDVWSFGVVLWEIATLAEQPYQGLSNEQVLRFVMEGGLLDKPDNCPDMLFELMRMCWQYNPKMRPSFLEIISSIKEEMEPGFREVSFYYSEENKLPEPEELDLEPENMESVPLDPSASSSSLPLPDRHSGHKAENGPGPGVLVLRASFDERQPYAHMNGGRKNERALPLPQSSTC

**Q.** With (Leu^24,Ala^31)hIGF-I as the substance, how does the “blood levels of endogenous rat IGF-I” value (hypophysectomized rats) read?
**A.** Its value is “lower”.

**Q.** And the “total IGF-I (rat and human) in blood” value (hypophysectomized rats; IGF agonist 10 μg)?
**A.** The value was “not a rise in total IGF”.

**Q.** What about the body weight gain (hypophysectomized rats; IGF agonist 10 μg/day SC minipump) of the same substance?
**A.** The body weight gain was “mean weight gain that was numerically smaller than that of the control group”.

**Q.** What about the “total IGF-I (rat and human) in blood” value (hypophysectomized rats; IGF agonist 50 μg alone or with GH) of the same substance?
**A.** The value was “rise in total IGF-I”.

**Q.** What about the body weight gain (hypophysectomized rats; IGF agonist 50 μg/day SC minipump, hGH 20 μg/day SC, or both) of the same substance?
**A.** The body weight gain was “only a small amount of activity”.

**Q.** And the absolute thymus weight (hypophysectomized rats; IGF agonist 50 μg/day, hGH 20 μg/day, or both)?
**A.** Its absolute thymus weight is “increased”.

**Q.** What about the “absolute and relative heart weight” value (hypophysectomized rats; IGF agonist 10 and 50 μg, hGH 20 μg/day, or combination) of the same substance?
**A.** Its value is “significant increase in the absolute and the relative size of the heart”.

**Q.** What about the absolute spleen weight (hypophysectomized rats; IGF mutant 10 and 50 μg/day, hGH 20 μg/day, or hGH plus 50 μg/day) of the same substance?
**A.** Its absolute spleen weight is “increased by both doses”.

**Q.** And the “bone growth (tibial epiphyseal plate width)” value (hypophysectomized rats; low-dose mutant (10 μg/day))?
**A.** The value was “did not increase bone growth”.

**Q.** What about the “bone growth (tibial epiphyseal plate width)” value (hypophysectomized rats; mutant 50 μg/day alone or with rhGH) of the same substance?
**A.** The value was “significant increase in bone growth”.

**Q.** And the “phosphorylation of the IGF-I receptor (KIRA)” value [1]?
**A.** Its value is “did not cause any change in receptor phosphorylation”.
